Source: ChEMBL document CHEMBL1201862, “PubChem BioAssay data set” (2004)
Activity calls are given as the source filed them.

Key:
X-box-binding protein 1 = X-box-binding protein 1 (Homo sapiens, UniProt P17861); format: functional, Cricetulus griseus;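 also: confirmatory dose-response counter-screen serving a CHOP assay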
[1] = THP-1 cell cytotoxicity, dose response, cytotoxicity control for Vif-APOBEC3G degradation inhibitor project, THP-1 cells (AID 1117359); format: functional; settings: Human immunodeficiency virus 1, THP-1
[2] = molecular target: Glutathione-S-transferase (Schistosoma japonicum, UniProt Q26513); assay: biotin-GST/anti-GST TR-FRET signal inhibitors, dose response, artefact control for Vif-APOBEC3G degradation inhibitor project, biochemical (AID 1117362); format: functional
Glutathione-S-transferase, sequence (Q26513 whole entry): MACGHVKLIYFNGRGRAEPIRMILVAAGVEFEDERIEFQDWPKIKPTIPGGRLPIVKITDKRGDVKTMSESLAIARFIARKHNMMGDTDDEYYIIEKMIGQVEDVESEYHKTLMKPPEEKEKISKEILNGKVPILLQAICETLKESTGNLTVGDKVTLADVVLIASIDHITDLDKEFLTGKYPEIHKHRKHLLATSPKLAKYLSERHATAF

Hexokinase HKDC1 = Hexokinase HKDC1 (Homo sapiens, UniProt Q2TB90); assay: HKDC1 hexokinase inhibitors, dose response, biochemical, W721R variant (AID 504729); format: functional
Hexokinase HKDC1, sequence (Q2TB90 whole entry): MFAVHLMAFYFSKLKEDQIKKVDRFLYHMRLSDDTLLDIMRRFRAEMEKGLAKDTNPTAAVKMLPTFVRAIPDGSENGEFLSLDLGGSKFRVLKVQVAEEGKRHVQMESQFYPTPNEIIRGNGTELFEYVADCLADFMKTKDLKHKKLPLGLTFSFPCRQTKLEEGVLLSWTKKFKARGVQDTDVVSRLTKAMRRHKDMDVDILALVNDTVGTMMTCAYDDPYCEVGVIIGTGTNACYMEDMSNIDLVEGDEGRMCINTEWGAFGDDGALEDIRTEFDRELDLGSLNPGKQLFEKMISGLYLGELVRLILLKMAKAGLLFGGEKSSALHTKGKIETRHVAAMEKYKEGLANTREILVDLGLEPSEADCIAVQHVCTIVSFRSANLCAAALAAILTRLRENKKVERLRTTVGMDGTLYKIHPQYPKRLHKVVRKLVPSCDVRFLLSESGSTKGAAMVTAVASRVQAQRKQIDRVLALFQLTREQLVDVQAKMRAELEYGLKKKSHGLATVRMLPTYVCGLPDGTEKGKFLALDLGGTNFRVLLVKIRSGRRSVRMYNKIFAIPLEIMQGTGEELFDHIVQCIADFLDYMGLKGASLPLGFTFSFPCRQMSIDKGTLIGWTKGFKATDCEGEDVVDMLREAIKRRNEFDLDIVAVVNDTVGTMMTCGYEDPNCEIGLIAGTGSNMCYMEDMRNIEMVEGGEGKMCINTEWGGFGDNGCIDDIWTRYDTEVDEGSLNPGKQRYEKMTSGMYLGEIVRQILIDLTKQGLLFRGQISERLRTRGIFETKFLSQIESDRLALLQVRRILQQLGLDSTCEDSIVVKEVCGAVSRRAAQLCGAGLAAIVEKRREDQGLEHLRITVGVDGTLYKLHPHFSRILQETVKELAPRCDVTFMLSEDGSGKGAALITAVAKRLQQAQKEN

Beta-galactosidase = Beta-galactosidase (Escherichia coli, UniProt Q8VNN2); assay: beta-galactosidase enzyme inhibitors and activators, dose response, artefact control for CCR6 antagonist project, biochemical, E. coli enzyme, set 3 (AID 504712); format: functional
Beta-galactosidase, sequence (Q8VNN2 whole entry): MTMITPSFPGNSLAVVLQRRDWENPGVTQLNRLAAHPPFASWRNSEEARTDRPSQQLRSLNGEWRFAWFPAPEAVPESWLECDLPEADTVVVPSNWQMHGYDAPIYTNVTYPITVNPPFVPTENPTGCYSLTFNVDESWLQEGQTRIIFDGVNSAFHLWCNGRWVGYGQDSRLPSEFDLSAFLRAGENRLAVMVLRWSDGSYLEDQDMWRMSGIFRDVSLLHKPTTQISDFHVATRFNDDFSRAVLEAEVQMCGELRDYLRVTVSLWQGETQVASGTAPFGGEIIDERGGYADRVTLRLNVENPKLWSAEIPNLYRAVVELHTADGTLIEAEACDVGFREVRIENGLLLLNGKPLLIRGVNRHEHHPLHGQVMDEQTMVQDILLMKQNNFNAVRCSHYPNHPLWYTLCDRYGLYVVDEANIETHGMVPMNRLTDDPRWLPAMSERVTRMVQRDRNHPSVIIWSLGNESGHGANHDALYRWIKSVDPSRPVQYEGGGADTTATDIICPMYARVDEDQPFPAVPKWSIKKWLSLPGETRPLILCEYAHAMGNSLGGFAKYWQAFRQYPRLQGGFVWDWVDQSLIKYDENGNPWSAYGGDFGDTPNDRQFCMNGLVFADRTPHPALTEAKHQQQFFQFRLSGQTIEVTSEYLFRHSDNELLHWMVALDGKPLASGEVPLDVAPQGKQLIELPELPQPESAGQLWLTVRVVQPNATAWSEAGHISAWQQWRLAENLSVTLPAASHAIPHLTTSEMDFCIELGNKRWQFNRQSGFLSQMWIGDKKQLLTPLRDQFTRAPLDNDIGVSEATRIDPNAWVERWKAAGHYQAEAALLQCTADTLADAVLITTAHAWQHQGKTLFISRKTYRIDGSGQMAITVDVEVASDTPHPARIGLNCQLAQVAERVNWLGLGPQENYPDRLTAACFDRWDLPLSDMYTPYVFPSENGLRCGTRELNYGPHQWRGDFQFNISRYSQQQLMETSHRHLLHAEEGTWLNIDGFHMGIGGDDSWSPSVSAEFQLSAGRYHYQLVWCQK

[3] = molecular target: C-C chemokine receptor type 6 (Homo sapiens, UniProt P51684); assay: CCR6 receptor antagonists, dose response, cell-based, luminescent beta-arrestin readout (AID 504728); format: functional
C-C chemokine receptor type 6, sequence (P51684 whole entry): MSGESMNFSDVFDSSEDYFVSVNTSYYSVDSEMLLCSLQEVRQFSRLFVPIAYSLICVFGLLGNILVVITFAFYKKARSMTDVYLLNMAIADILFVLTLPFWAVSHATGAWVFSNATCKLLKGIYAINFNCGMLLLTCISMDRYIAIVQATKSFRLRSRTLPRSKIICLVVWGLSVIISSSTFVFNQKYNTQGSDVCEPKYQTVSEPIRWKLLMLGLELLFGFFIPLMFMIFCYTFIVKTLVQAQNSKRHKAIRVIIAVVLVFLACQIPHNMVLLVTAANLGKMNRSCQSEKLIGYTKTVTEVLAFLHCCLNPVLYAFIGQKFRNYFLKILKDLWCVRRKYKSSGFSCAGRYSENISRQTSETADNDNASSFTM

[4] = molecular target: Dual specificity protein phosphatase 3 (Homo sapiens, UniProt P51452); assay: VHR1 inhibitor Ki determination, SAR follow-up, biochemical, colorimetric (AID 2004)
Dual specificity protein phosphatase 3, sequence (P51452 whole entry): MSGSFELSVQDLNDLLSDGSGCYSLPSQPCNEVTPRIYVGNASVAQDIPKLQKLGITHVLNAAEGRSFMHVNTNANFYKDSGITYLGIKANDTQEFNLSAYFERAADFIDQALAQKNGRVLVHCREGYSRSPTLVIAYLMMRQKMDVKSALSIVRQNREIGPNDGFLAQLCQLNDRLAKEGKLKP

X-box-binding protein 1, sequence (P17861 whole entry): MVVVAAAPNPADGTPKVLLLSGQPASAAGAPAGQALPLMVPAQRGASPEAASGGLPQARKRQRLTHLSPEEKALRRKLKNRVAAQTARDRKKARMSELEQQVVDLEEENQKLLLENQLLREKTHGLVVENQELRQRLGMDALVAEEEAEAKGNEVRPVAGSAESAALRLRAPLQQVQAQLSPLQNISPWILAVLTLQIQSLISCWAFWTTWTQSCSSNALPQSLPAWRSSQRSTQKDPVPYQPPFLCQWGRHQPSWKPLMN

## CC(C)Cc1ccc(C(C)C(=O)Nc2nccs2)cc1 (configuration not stated)
X-box-binding protein 1
  Absolute IC50 (XBP1): 10 µM

## O=C1C(CO)=C(CO)C(=O)c2c(O)ccc(O)c21
[1]
  CC50: 25.3 µM (active)
[2]
  IC50: > 100 µM (active)
Hexokinase HKDC1
  IC50: 15.2 µM (active)

## CCN1CCC(O)(/C=C/c2ccc(C)cc2)C(C(=O)/C=C/c2ccc(C)cc2)C1 (configuration not stated)
Beta-galactosidase
  IC50: > 66.6 µM (inactive)
[3]
  IC50: 22.8 µM (inactive)

## O=C1/C(=C\c2ccc(-c3cccc(Cl)c3)o2)SC(=S)N1CCS(=O)(=O)O
[4]
  Ki: 3.13 µM (active)
